The values that follow come from patent US10953109B2, “Application of GPR45 gene” (FUDAN UNIVERSITY, priority 2015, dated 2021).

Entries after “also recorded” stand apart in the source; their conditions may differ.

The subject of data set [1] is GPR45^PB1/PB1 mice. Nature of the data set: MTII injected daily into third intraventricular of adult GPR45 homozygote obese mice; body weight and fat. It is filed as in vivo. How it is done: (§1) MTII is an agonist of MC3R/MC4R, can simulate a function of a POMC shorn product α-MSH and plays a role of suppressing appetite and promoting energy metabolism. […] When the mutant mice and wild type mice of control groups were injected with equal amounts of normal saline, the body weight was not influenced.

Data set [2] concerns wild type mice. Nature of the data set: MTII injected into third intraventricular of wild type mice; body weight and fat. The class given is in vivo. As to the method: as §1
Data set [3] concerns GPR45. Nature of the data set: RNA interference of GPR45 in primary culture cells of hypothalamuses of wild type fetal mice, RT-PCR. The class given is cell-based. The settings on record: 10 pmol siRNA per well, transfection 72 h. As to the method: […]
For detection of POMC expression, primary cell RNA was extracted to perform reverse transcription to obtain cDNA, then real-time quantitative PCR detection was performed, and experiment steps were the same as embodiment 11. […]

[4] abbreviates: mutant mice, six days after administration, compared with normal saline control.
Where [5] appears, read: wild type mice injected with MTII, six days.

Regarding melanotan-2 [MTII], the “body weight after three days after MTII was injected” value in data set [1] (GPR45^PB1/PB1 mice, three days) was “reduced to the level of the body weight of the wild type mice”. Further, the “fat content (FIG. 24B)” value in data set [1] (adult male GPR45 homozygote mice) is “fat content decreases”. In addition, the “body weight (FIG. 24A)” value in data set [1] (adult male GPR45 homozygote mice, after six days) is reported as “body weight decreases”. Also, the “increase of the body weight” value in data set [1] (daily injection, adult obese mice) is “could be suppressed”. For the same substance, in data set [1] (intraventricular injection), the “obesity caused by GPR45 mutations” value is reported as “obesity is suppressed; also recorded: effectively reverses the obesity”. In addition, the “body weight decreased relative to the body weight before injection” value in data set [1] (mutant mice, six days after MTII was injected) turned out to be 13.6%. Further, in data set [1] (setting [4]), the “weight of gonadal white adipose tissues decreased” value is given as 48.5%, the “weight of interscapular brown adipose tissues decreased” value turned out to be 50.4% and the “weight of retroperitoneal white adipose tissues decreased” value is recorded as 66.7%. Also, in data set [2] (setting [5]), the “weight of gonadal white adipose tissues decreased” value was 44.1%, the “weight of interscapular brown adipose tissues increased” value turned out to be 0.4% and the “weight of retroperitoneal white adipose tissues decreased” value was 50.9%. Besides, the “body weight decreased relative to the body weight before injection” value in data set [2] (wild type mice, six days after MTII was injected) is recorded as 1.8%.
On to “GPR45-siRNA: siRNA, sense 5′-CCGACAUCAUGCUGUCUUUAUTT-3′ (SEQ ID NO. 29), antisense 5′-AUAAAGACAGCAUGAUGUCGGTT-3′ (SEQ ID NO. 30) (chemistry not given here)”, for which, in data set [3], the “expression amount of GPR45 decreased” value is recorded as 53.4% and the “expression amount of POMC decreased” value amounted to 30.7%.
